# Reference: US7432397B2, “Imaging compounds” (Hammersmith Imanet Ltd., priority 2002, dated 2008)
# Experiment: Biodistribution of radioactivity in rat tissues after intravenous injection
# Type: in vivo
# Settings: for Radioactivity in Plasma / Radioactivity in Whole blood: composite curve of 9 rats
# Method: Sixteen adult male Sprague-Dawley rats (body weight 250-320 g: mean±SD=288±25 g) were used in 5 separate experiments. Each rat was injected with ˜13 MBq Compound 1, at a specific activity of […], via a previously catheterised tail vein. The associated stable compound was 0.5±0.2 nmol/kg. Discrete samples of arterial blood were collected from 9 of the rats via a previously catheterised tail artery.
# Tissues were sampled post-mortem using an established protocol, as described in Hirani et al, Synapse 42:164-176 (2001). The radioactivity concentration data obtained at 12 times up to 90 min after radioligand injection were normalised for both amount injected and body weight, giving:—‘uptake units’=(cpm/g tissue)/(injected cpm/g body weight).
smiles,measurement,setting,value
"CSc1cccc(N([11CH3])C(=N)Nc2cc(SC)ccc2Cl)c1 [Compound 1, (N-(2-chloro-5-(methylthio)phenyl)-N′-(3-methylthio)phenyl)-N′-[N-methyl-^11C]-methylguanidine]",extraction of radioactivity into the brain,following intravenous injection,high extraction
same,Radioactivity in Cerebellum,"i.v., 1 min",2.21 Uptake Units
same,Radioactivity in Entorhinal cortex,"i.v., 1 min",1.92 Uptake Units
same,Radioactivity in Fat,"i.v., 1 min",0.15 Uptake Units
same,Radioactivity in Heart (ventricle),"i.v., 1 min",10.4 Uptake Units
same,Radioactivity in Hippocampus,"i.v., 1 min",1.61 Uptake Units
same,Radioactivity in Hypothalamus,"i.v., 1 min",2.31 Uptake Units
same,Radioactivity in Inferior collicull,"i.v., 1 min",3.42 Uptake Units
same,Radioactivity in Kidney,"i.v., 1 min",12.5 Uptake Units
same,Radioactivity in Large intestine,"i.v., 1 min",2.71 Uptake Units
same,Radioactivity in Lge. intestine content,"i.v., 1 min",0.11 Uptake Units
same,Radioactivity in Liver,"i.v., 1 min",2.48 Uptake Units
same,Radioactivity in Lung,"i.v., 1 min",56.4 Uptake Units
same,Radioactivity in Medulla with Pons,"i.v., 1 min",2.18 Uptake Units
same,Radioactivity in Olfactory bulbs,"i.v., 1 min",2.34 Uptake Units
same,Radioactivity in Olfactory tubercles,"i.v., 1 min",2.49 Uptake Units
same,Radioactivity in Prefrontal cortex,"i.v., 1 min",2.52 Uptake Units
same,Radioactivity in Skeletal muscle,"i.v., 1 min",1.07 Uptake Units
same,Radioactivity in Skin,"i.v., 1 min",0.47 Uptake Units
same,Radioactivity in Sm. intestine content,"i.v., 1 min",4.96 Uptake Units
same,Radioactivity in Small intestine,"i.v., 1 min",3.38 Uptake Units
same,Radioactivity in Somatosensory cortex,"i.v., 1 min",2.22 Uptake Units
same,Radioactivity in Spleen,"i.v., 1 min",3.04 Uptake Units
same,Radioactivity in Stomach,"i.v., 1 min",1.60 Uptake Units
same,Radioactivity in Striata,"i.v., 1 min",2.13 Uptake Units
same,Radioactivity in Superior collicull,"i.v., 1 min",2.42 Uptake Units
same,Radioactivity in Testis,"i.v., 1 min",0.50 Uptake Units
same,Radioactivity in Thalamus,"i.v., 1 min",2.59 Uptake Units
same,Radioactivity in Visual cortex,"i.v., 1 min",2.46 Uptake Units
same,Radioactivity in Plasma,"i.v., 1 min",0.51 Uptake Units
same,Radioactivity in Whole blood,"i.v., 1 min",0.59 Uptake Units
same,Radioactivity in Cerebellum,"i.v., 2 min",2.47 Uptake Units
same,Radioactivity in Entorhinal cortex,"i.v., 2 min",2.13 Uptake Units
same,Radioactivity in Fat,"i.v., 2 min",0.18 Uptake Units
same,Radioactivity in Heart (ventricle),"i.v., 2 min",8.20 Uptake Units
same,Radioactivity in Hippocampus,"i.v., 2 min",1.73 Uptake Units
same,Radioactivity in Hypothalamus,"i.v., 2 min",2.29 Uptake Units
same,Radioactivity in Inferior collicull,"i.v., 2 min",3.65 Uptake Units
same,Radioactivity in Kidney,"i.v., 2 min",10.8 Uptake Units
same,Radioactivity in Large intestine,"i.v., 2 min",3.11 Uptake Units
same,Radioactivity in Lge. intestine content,"i.v., 2 min",0.21 Uptake Units
same,Radioactivity in Liver,"i.v., 2 min",1.65 Uptake Units
same,Radioactivity in Lung,"i.v., 2 min",44.5 Uptake Units
same,Radioactivity in Medulla with Pons,"i.v., 2 min",2.35 Uptake Units
same,Radioactivity in Olfactory bulbs,"i.v., 2 min",2.50 Uptake Units
same,Radioactivity in Olfactory tubercles,"i.v., 2 min",2.56 Uptake Units
same,Radioactivity in Prefrontal cortex,"i.v., 2 min",2.73 Uptake Units
same,Radioactivity in Skeletal muscle,"i.v., 2 min",1.14 Uptake Units
same,Radioactivity in Skin,"i.v., 2 min",0.54 Uptake Units
same,Radioactivity in Sm. intestine content,"i.v., 2 min",5.62 Uptake Units
same,Radioactivity in Small intestine,"i.v., 2 min",3.87 Uptake Units
same,Radioactivity in Somatosensory cortex,"i.v., 2 min",2.56 Uptake Units
same,Radioactivity in Spleen,"i.v., 2 min",2.65 Uptake Units
same,Radioactivity in Stomach,"i.v., 2 min",1.49 Uptake Units
same,Radioactivity in Striata,"i.v., 2 min",2.33 Uptake Units
same,Radioactivity in Superior collicull,"i.v., 2 min",2.64 Uptake Units
same,Radioactivity in Testis,"i.v., 2 min",0.51 Uptake Units
same,Radioactivity in Thalamus,"i.v., 2 min",2.41 Uptake Units
same,Radioactivity in Visual cortex,"i.v., 2 min",2.71 Uptake Units
same,Radioactivity in Plasma,"i.v., 2 min",0.37 Uptake Units
same,Radioactivity in Whole blood,"i.v., 2 min",0.42 Uptake Units
same,Radioactivity in Cerebellum,"i.v., 5 min",2.43 Uptake Units
same,Radioactivity in Entorhinal cortex,"i.v., 5 min",2.16 Uptake Units
same,Radioactivity in Fat,"i.v., 5 min",0.23 Uptake Units
same,Radioactivity in Heart (ventricle),"i.v., 5 min",4.27 Uptake Units
same,Radioactivity in Hippocampus,"i.v., 5 min",2.00 Uptake Units
same,Radioactivity in Hypothalamus,"i.v., 5 min",2.28 Uptake Units
same,Radioactivity in Inferior collicull,"i.v., 5 min",3.23 Uptake Units
same,Radioactivity in Kidney,"i.v., 5 min",8.70 Uptake Units
same,Radioactivity in Large intestine,"i.v., 5 min",2.73 Uptake Units
same,Radioactivity in Lge. intestine content,"i.v., 5 min",0.13 Uptake Units
same,Radioactivity in Liver,"i.v., 5 min",2.95 Uptake Units
same,Radioactivity in Lung,"i.v., 5 min",38.7 Uptake Units
same,Radioactivity in Medulla with Pons,"i.v., 5 min",2.34 Uptake Units
same,Radioactivity in Olfactory bulbs,"i.v., 5 min",2.18 Uptake Units
same,Radioactivity in Olfactory tubercles,"i.v., 5 min",2.42 Uptake Units
same,Radioactivity in Prefrontal cortex,"i.v., 5 min",2.67 Uptake Units
same,Radioactivity in Skeletal muscle,"i.v., 5 min",1.32 Uptake Units
same,Radioactivity in Skin,"i.v., 5 min",0.61 Uptake Units
same,Radioactivity in Sm. intestine content,"i.v., 5 min",6.84 Uptake Units
same,Radioactivity in Small intestine,"i.v., 5 min",3.17 Uptake Units
same,Radioactivity in Somatosensory cortex,"i.v., 5 min",2.69 Uptake Units
same,Radioactivity in Spleen,"i.v., 5 min",3.85 Uptake Units
same,Radioactivity in Stomach,"i.v., 5 min",1.26 Uptake Units
same,Radioactivity in Striata,"i.v., 5 min",2.35 Uptake Units
same,Radioactivity in Superior collicull,"i.v., 5 min",2.59 Uptake Units
same,Radioactivity in Testis,"i.v., 5 min",0.56 Uptake Units
same,Radioactivity in Thalamus,"i.v., 5 min",2.59 Uptake Units
same,Radioactivity in Urine,"i.v., 5 min",11.7 Uptake Units
same,Radioactivity in Visual cortex,"i.v., 5 min",3.05 Uptake Units
same,Radioactivity in Plasma,"i.v., 5 min",0.24 Uptake Units
same,Radioactivity in Whole blood,"i.v., 5 min",0.26 Uptake Units
same,Radioactivity in Cerebellum,"i.v., 10 min",2.08 Uptake Units
